The results in this text go back to the supplement of paper PMC10307832.

Holding throughout (experiment): relative viability (nuclei count vs DMSO), 5 days (fraction); higher = more cells survive
Compound in assay [1]: C1CSC2=C(C(=O)N1)SC3=C2C=C(C=C3)O [kb NB 142-70] + Nc1nc2[nH]cc(CCc3ccc(C(=O)N[C@@H](CCC(=O)O)C(=O)O)cc3)c2c(=O)[nH]1 [Pemetrexed] (partner 0.2 µM)
In a few lines:
(§1)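 Each reported value is a median over duplicate plates. It expresses relative viability: treated-well nuclei count divided by vehicle-well nuclei count. Lung cancer cell lines in 1536-well plates were dosed by pin tool a day after seeding, alone with one drug or with a fixed anchor-drug dose plus five library-drug doses (not always all listed) in √10 steps, and nuclei were counted after 5 days.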

Compound in assay [2]: NCC(=O)Nc1ccc(-n2nc(C(F)(F)F)cc2-c2ccc3c(ccc4ccccc43)c2)cc1 + CCNC(=O)c1noc(-c2cc(C(C)C)c(O)cc2O)c1-c1ccc(CN2CCOCC2)cc1 [Luminespib] (partner 0.01 µM)
In a few lines: as §1

Compound in assay [3]: NCC(=O)Nc1ccc(-n2nc(C(F)(F)F)cc2-c2ccc3c(ccc4ccccc43)c2)cc1 + CS(=O)(=O)N1CCN(Cc2cc3nc(-c4cccc5[nH]ncc45)nc(N4CCOCC4)c3s2)CC1 [Pictilisib] (partner 1 µM)
The procedure, abridged:
as §1

Compound in assay [4]: NCC(=O)Nc1ccc(-n2nc(C(F)(F)F)cc2-c2ccc3c(ccc4ccccc43)c2)cc1 + Nc1nc2[nH]cc(CCc3ccc(C(=O)N[C@@H](CCC(=O)O)C(=O)O)cc3)c2c(=O)[nH]1 [Pemetrexed] (partner 0.2 µM)
In a few lines: as §1

On to UMC-11, for which the relative viability in assay [1] (first compound 0.1 µM) amounted to 0.861; in assay [1] (first compound 1 µM), 0.779; in assay [1] (first compound 3.162 µM) it was 0.549; in assay [2] (first compound 0.02 µM), 1.06; in assay [2] (first compound 0.06325 µM), 0.965; in assay [2] (first compound 0.2 µM), 1.05. The relative viability in assay [2] (first compound 0.6325 µM) turned out to be 0.948; in assay [2] (first compound 2 µM), 0.948; in assay [3] (first compound 0.02 µM), 0.835; in assay [3] (first compound 0.06325 µM), 0.866; in assay [3] (first compound 0.2 µM), 0.858; in assay [3] (first compound 0.6325 µM), 0.732. Further, the relative viability in assay [3] (first compound 2 µM) amounted to 0.828; in assay [4] (first compound 0.02 µM) it was 0.835; in assay [4] (first compound 0.06325 µM) it was 0.699; in assay [4] (first compound 0.2 µM), 0.905; in assay [4] (first compound 0.6325 µM) it was 0.853; in assay [4] (first compound 2 µM), 0.759.
